Assays:
[1] = target: human VPS34 (Homo sapiens (Human), UniProt Q8NEB9); assay: Human VPS34 enzyme assay (Adapta TR-FRET ADP detection); format: biochemical; conditions: IC50 range class
[2] = tested on: A431 cell line; assay: Cellular anti-proliferative assay of VPS34 inhibitors in combination with a second therapeutic agent (Cell Titer Glo, 72 hrs); format: cell-based
Method: (§1) Example 57: Cellular Assay for Anti-proliferative Activity of VPS34 Inhibitors in Combination with a Second Therapeutic Agent
(§2) Cells were plated in 25 μl of media in 384 well plates at 1,000 cells per well (A431, PC9, and […] cell lines), 1,500 cells per well (NCI-H1975) or 2,000 cells per well (NCI-H1650). The plates were incubated for 24 hrs at 37° C., 6% CO2. The test compounds (see Table 38 below) were diluted serially, and 62.5 nL of each compound solution (or DMSO, if it is a single agent experiment) is added so the total added to the cells is 125 nL. Cell plates were incubated for 72 hrs at 37° C., 6% CO2. Cell Titer Glo reagent (Promega) was added. The plates were then incubated for 10 minutes at room temperature before luminescence was read on a plate reader such as the Pherastar Plus, Pherastar FS, or LEADSeeker imaging system.
(§3) Bliss antagonism was defined similarly.
(§4) Bliss dependence was defined as the percent cell survival at a certain dose combination divided by the percent cell survival predicted by Bliss independence. More specifically, the Bliss dependence is vAB/(vA*vB), where vAB is the viability with drug A and drug B added, while vA and vB are the viabilities with each drug alone. The dose for the combination used in this study is the inflection point for each drug alone.
(§5) Another way to evaluate additivity is through consideration of Loewe additivity. A difference between Bliss independence and Loewe additivity evaluations of drug combination data is that Bliss independence evaluates whether two drugs interact at all (the null hypothesis is that the mechanisms are entirely independent) and Loewe additivity evaluates whether two drugs interact in an additive fashion (the null hypothesis is that the two drugs work by identical mechanisms). For Bliss independence, the boundary between additivity and synergy must be measured. For Loewe additivity, this boundary is assumed to be at a value of 1. Thus, Bliss independence provides a boundary between antagonism and synergy or additivity. Loewe additivity provides a boundary between synergy and independence or antagonism.
(§6) Synergy can also be measured by nonlinear blending synergy. Nonlinear blending synergy [Peterson, J. J. and Novik, S. J. J Recept Signal Transduct Res, 27, 12-146 (2007))] is found by considering the percent cell death values along the nonlinear blending plot. If the maximum cell death occurs between the endpoints, then the blending synergy is the difference between the maximum cell death for the combined drugs and the maximum cell death for the either drug alone.
(§7) A derivative of Loewe additivity is the Combination Index, I (see Chou T. C., Talalay P. Adv. Enzyme Reg., 22: 27-55 (1984) and Berenbaum M. C. J. Theor. Biol., 114:413-431 (1985)). This measure is based on the shape of the isobologram which represents 50% viability (for a review of the use of isobolograms in analysis of drug combinations, see Tallarida, R. J. J. Pharm. Exp. Therap. 319:1-7 (2006)).
(§8) The results in Table 38A were summarized by categorizing the Combination Index, I. A mean Combination Index in the range (0.7-1.3) is classified as Additivity. A mean in the range (0-0.7) is classified as Synergy. A mean in the range (1.3-2) is classified as Subadditivity. A mean greater than 2 is classified as Antagonism. […] In this case, the Nonlinear Blending Synergy is used instead to generate a call (Table 38B). The categorization is similar to the Combination Index. A Nonlinear Blending Synergy within the range (−20, 20) is classified as Additive. A value below −20 is classified as Antagonism, while a value above 20 is classified as Synergy.

[3] = tested on: NCI-H1650 cell line; assay: as above; format: cell-based, human; conditions: NCI H-1650; for Blending Synergy: in combination with Erlotinib (Compound Y)
Method: as §1, §2, §3, §4, §5, §6, §7, §8

[4] = tested on: NCI-H1975 cell line; assay: as above; format: cell-based, human
Method: as §1, §2, §3, §4, §5, §6, §7, §8

[5] = tested on: PC9 cell line; assay: as above; format: cell-based, human
Method: as §1, §2, §3, §4, §5, §6, §7, §8

[6] = in combination with Afatinib (Compound Y)
[7] = in combination with Afatinib, call from Combination Index
[8] = in combination with Erlotinib (Compound Y)
[9] = in combination with Erlotinib, call from Combination Index
[10] = in combination with AZD9291 (Compound Y)
[11] = in combination with CO-1686 (Compound Y)
[12] = in combination with CO-1686, call from Combination Index

Sequence of human VPS34 (Q8NEB9 whole entry): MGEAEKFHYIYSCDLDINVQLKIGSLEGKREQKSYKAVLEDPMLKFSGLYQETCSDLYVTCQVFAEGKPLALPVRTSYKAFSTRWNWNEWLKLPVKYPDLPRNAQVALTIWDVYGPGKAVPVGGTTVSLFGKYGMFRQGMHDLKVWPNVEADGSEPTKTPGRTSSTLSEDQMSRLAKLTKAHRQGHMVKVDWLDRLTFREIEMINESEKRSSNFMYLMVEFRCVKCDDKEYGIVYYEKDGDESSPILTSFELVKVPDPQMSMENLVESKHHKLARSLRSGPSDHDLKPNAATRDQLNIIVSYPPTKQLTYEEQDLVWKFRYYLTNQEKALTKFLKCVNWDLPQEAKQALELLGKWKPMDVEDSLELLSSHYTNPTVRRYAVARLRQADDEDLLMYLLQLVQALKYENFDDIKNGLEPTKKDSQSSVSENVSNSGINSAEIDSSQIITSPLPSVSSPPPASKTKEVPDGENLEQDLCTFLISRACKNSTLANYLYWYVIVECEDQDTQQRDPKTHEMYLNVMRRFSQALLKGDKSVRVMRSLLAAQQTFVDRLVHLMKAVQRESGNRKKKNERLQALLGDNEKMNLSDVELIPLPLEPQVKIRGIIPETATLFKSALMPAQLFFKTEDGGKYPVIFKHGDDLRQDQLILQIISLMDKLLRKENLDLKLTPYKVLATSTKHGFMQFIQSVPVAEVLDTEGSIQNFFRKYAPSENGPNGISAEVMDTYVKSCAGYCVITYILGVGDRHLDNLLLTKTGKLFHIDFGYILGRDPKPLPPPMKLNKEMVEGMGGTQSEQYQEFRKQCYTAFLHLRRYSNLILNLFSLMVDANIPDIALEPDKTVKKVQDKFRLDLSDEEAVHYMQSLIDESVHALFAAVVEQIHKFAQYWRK

SMILES	IC50 [1]	Combination Index [2, 6]	Meaning [2, 7]	Combination Index [2, 8]	Meaning [2, 9]	Combination Index [3, 6]	Blending Synergy [3]	Combination Index [4, 6]	Combination Index [5, 6]	Meaning [5, 7]	Combination Index [5, 8]	Meaning [5, 9]	further results
CC(=O)Nc1cc(-c2cnc(C)c(NS(=O)(=O)N(C)C)c2)ccn1 [Compound I-32, N-{5-[(dimethylsulfamoyl)amino]-6-methyl-3,4′-bipyridin-2′-yl}acetamide]	< 10 nM	0.25	Synergy (A mean in the range (0-0.7) is classified as Synergy)	0.73	Additivity (A mean Combination Index in the range (0.7-1.3) is classified as Additivity)	0.40	22.29	0.66	0.79	Additivity (A mean Combination Index in the range (0.7-1.3) is classified as Additivity)	0.78	Additivity (A mean Combination Index in the range (0.7-1.3) is classified as Additivity)	
CC(=O)Nc1cc(-c2cnc(C)c(NS(=O)(=O)c3ccc(Cl)cc3F)c2)ccn1 [Compound I-94, N-(5-{[(4-chloro-2-fluorophenyl)sulfonyl]amino}-6-methyl-3,4′-bipyridin-2′-yl)acetamide]	< 10 nM	0.23	Synergy (A mean in the range (0-0.7) is classified as Synergy)	0.38	Synergy (A mean in the range (0-0.7) is classified as Synergy)	0.65	23.69	0.54	1.04	Additivity (A mean Combination Index in the range (0.7-1.3) is classified as Additivity)	0.91	Additivity (A mean Combination Index in the range (0.7-1.3) is classified as Additivity)	
Cc1c(-c2ccnc(NC(=O)C3CC3)c2)cnc(Cl)c1NS(=O)(=O)c1ccc(F)cc1F [Compound I-308, N-(6-chloro-5-{[(2,4-difluorophenyl)sulfonyl]amino}-4-methyl-3,4′-bipyridin-2′-yl)cyclopropanecarboxamide]	< 10 nM					0.55	27.0	0.84	1.49	Subadditivity (A mean in the range (1.3-2) is classified as Subadditivity)	1.36	Subadditivity (A mean in the range (1.3-2) is classified as Subadditivity)	Blending Synergy [2, 10]: 10.2; Meaning ([2]; in combination with AZD9291, call from Nonlinear Blending Synergy): Additivity; Blending Synergy [2, 6]: 11.2; Meaning ([2]; in combination with Afatinib, call from Nonlinear Blending Synergy): Additivity; Combination Index [2, 11]: 0.88; Meaning [2, 12]: Additivity (A mean Combination Index in the range (0.7-1.3) is classified as Additivity); Blending Synergy [2, 8]: 15.2; Meaning ([2]; in combination with Erlotinib, call from Nonlinear Blending Synergy): Additivity; Combination Index [3, 10]: 0.53; Combination Index [3, 11]: 0.36; Combination Index [4, 10]: 0.72; Combination Index [4, 11]: 0.60; Combination Index [5, 10]: 1.33; Meaning ([5]; in combination with AZD9291, call from Combination Index): Subadditivity (A mean in the range (1.3-2) is classified as Subadditivity); Combination Index [5, 11]: 1.19; Meaning [5, 12]: Additivity (A mean Combination Index in the range (0.7-1.3) is classified as Additivity)
Cc1ncc(-c2ccnc(Nc3ccncn3)c2)cc1NS(=O)(=O)N(C)C [Compound I-217, N,N-dimethyl-N′-[6-methyl-2′-(pyrimidin-4-ylamino)-3,4′-bipyridin-5-yl]sulfuric diamide]	< 10 nM	0.36	Synergy (A mean in the range (0-0.7) is classified as Synergy)	0.46	Synergy (A mean in the range (0-0.7) is classified as Synergy)	0.31	28.65	0.52	0.97	Additivity (A mean Combination Index in the range (0.7-1.3) is classified as Additivity)	0.87	Additivity (A mean Combination Index in the range (0.7-1.3) is classified as Additivity)	

— patent US9751854B2 (Millennium Pharmaceuticals, Inc., priority 2014, dated 2017)
